The values below come from patent US12458647B2, “Macrocyclic derivative and use thereof” (Guangzhou Joyo Pharmatech Co., Ltd., priority 2022, dated 2025).

In general, IC50 refers to the concentration needed to halve the response being measured.

The subject of the assay is p-ERK level in GP2D cells. The assay is described as follows: Detection of p-ERK level in GP2D cells (HTRF). Type of assay: cell-based. The note with it: 3 hours incubation, read-out: GP2D pERK IC50. The text has this: GP2D cell line (DMEM+10% FBS+1% penicillin/streptomycin) was purchased from ECACC; RPMI-1640 medium was purchased from Gibco; fetal bovine serum was purchased from Hyclone; Advanced Phospho-ERK1/2(THR202/TYR204) KIT was purchased from Bioauxilium-Advanced Phospho; ERK1/2(THR202/TYR204) KIT was composed of: Advanced PhosphoERK1/2Eu Cryptate antibody, Advanced PhosphoERK1/2 d2 antibody. Blocking reagent (stock solution 100×), Lysis buffer #1 (stock solution 4×), Detection buffer (ready-to-use), with a storage temperature of ≤−16° C. for all.
(1) The cells were seeded in a white-bottomed 384-well cell culture plate, 8 μL of cell suspension per well, each well containing 7,500 cells. The cell plate was placed in a carbon dioxide incubator and incubated overnight at 37° C.;
(2) The test compound was diluted with 100% DMSO to 3 mM as the first concentration, and then diluted with a pipette to 10 concentrations of 3,000, 1,000, 300, 100, 30, 10, 3, 1, 0.3 and 0.1 μM 2 μL of the compound was taken and added to 198 μL of cell starvation medium, mixed well, 15 μL of compound solution was taken and added to 35 μL of cell starvation medium and mixed well. […]
(5) After incubation, a multilabel plate reader was used to read the HTRF excitation: 320 nm, emission: 615 nm, and 665 nm. […]

Structures are written as SMILES. Read-outs that look alike come from different tables or passages of the source.

`CCn1c(-c2cc(N3CCN(C)CC3)cnc2C(C)OC)c2c3cc(ccc31)-c1csc(n1)CC(NC(=O)C1CC1C(F)F)C(=O)N1NC(C(=O)OCC(C)(C)C2)C2CC1C2` (single isomer, unassigned) [Trifluoroacetate of Compound 8A]: the IC50 came out at 0.8 nM. `[2H]C([2H])([2H])N1CCN(c2cnc([C@H](C)OC)c(-c3c4c5cc(ccc5n3CC)-c3csc(n3)C[C@H](NC(=O)[C@H]3[C@H](C)[C@@H]3C)C(=O)N3N[C@H](C(=O)OCC(C)(C)C4)C4CC3C4)c2)CC1` [Trifluoroacetate of Compound 12A]: the IC50 (GP2d) stood at 0.2 nM.
